# Values quoted from earlier work in patent publication US20100209332A1, “Nonaqueous Chlorine Dioxide-Generating Compositions and Methods Related Thereto” (BASF Catalysts LLC, priority 2009, published 2010).
# Several values for one entry are separate records, joined by “and”; a condition that tells them apart may be missing. Identical values can stand only once.
# Settings: sources: † clippercontrols.com URL, § Handbook of Chemistry and Physics, 52nd Ed.
row,SMILES,"Dielectric Constant, at 18-25 deg C."
1,CCCCO [Butyl alcohol],"17.1-17.8^†,§"
2,OCC(O)CO [Glycerine],"42.5^†,§"
3,CC(C)O [Isopropanol],18.3 and 20.1
4,CCCCCCCC(=O)O [Octanoic acid],3.2^†
5,CCCCCCCC/C=C\CCCCCCCC(=O)O [Oleic acid],"2.5^†,§"
6,CC(O)CO (stereo not shown) [Propylene glycol],"32^†,§"
7,O [Water],80.4 and 78.5
